Results on one substance are retold here after article PMC10783051 (Microbiology Spectrum, 2023).

The test system of the data set is Streptomyces venezuelae ATCC 10712. As to the kind of experiment: In planta co-inoculation on tomato roots, UPLC-MS of rhizosphere extracts. The following applies: tomato roots on Hoagland agar, 7 days at 22°C, UPLC-MS of agar near the roots, four biological replicates. The method, then: For the in planta studies, tomato seeds (Solanum lycopersicum var. Moneymaker) were sterilized following the protocol described by ([26]). Briefly, tomato seeds were primarily sterilized in 70% ethanol (vol/vol) by gently shaking for 2 min. Further, the ethanol was removed and the seeds were added to 50 mL of the sterilization solution [4.5 mL of bleach containing 9.5% (vol/vol) of active chlorine, 0.01 g of Tween 80, and 45.5 mL of sterile water] and gently shaken for 10 min. Seeds were thereafter washed 10 times with water to eliminate sterilization solution residues. […]
All UPLC-MS analyses were performed using an Agilent 1290 Infinity II coupled with a diode array detector and a mass detector (Jet Stream ESI-Q-TOF 6530) in positive mode with the parameters set up as follows: capillary voltage of 3.5 kV, nebulizer pressure of 35 lb/in^2, drying gas of 8 L/min, drying gas temperature of 300°C, flow rate of sheath gas of 11 L/min, sheath gas temperature of 350°C, fragmentor voltage of 175 V, skimmer voltage of 65 V, and octopole radiofrequency of 750 V. Accurate mass spectra were recorded in the m/z range of 300–1,700. […]

Take iturin: the “linear forms in rhizosphere extracts upon co-inoculation of Bv with Sv” value is “high proportion of linear”.
